Test results taken from US7531194B2, “Plant extracts for the treatment of rheumatoid arthritis” (Development Center for Biotechnology, priority 2006, dated 2009).

Experiments:
Assay type in all cases: in vivo, Lewis rats
TNF-α = assay: Abdominal cavity cell (PEC) culture, cytokine TNF-α, CIA rats fed PA crude extracts (Embodiment 2); conditions: LPS 10 μg/ml, 24 hours, FIG. 8
Experimental: (§1) The animal test scheme is shown as FIG. 2. Bovine collagen Type II (Bovine C II) was dissolved in 0.1 M acetic acid solution, stirred to dissolve thoroughly, and formulated into solutions with concentrations of 1.5 and 3 mg/ml, which were stored in 4° C. for later use. For the first immune injection, 100 μl of C II solution was emulsified with an equal amount of CFA, and injected subcutaneously (200 μl/rat) in the root portions of tails of the rats after the emulsification was complete. […] After about 15 days, the second immunization was done. 100 μl of C II solution was emulsified with an equal amount of IFA, and injected subcutaneously (200 μl/rat) in the root portions of tails of the rats after the emulsification was complete. Approximately from Day 20, the symptoms of arthritis were observed (CIA rats), and PA and indomethacin were fed until Day 45. [table] 1. After carbon dioxide euthanasia, the outer furs of the rat abdominal cavity were cut out by scissors, to expose the whole abdominal cavity. 2. HBSS buffer was injected into the abdominal cavity batch-wise by a 10 ml syringe to make a total volume of about 20 ml/rat. 3. The abdominal cavity of the rat was opened after the abdomen was gently kneaded. An incision of about 2 cm was made in the abdominal cavity by using scissors. […] The concentrations of cytokine TNF-α, IL-6, and IL-1β were analyzed by using ELISA kit.

CIA rats = assay: Maximum arthritic index (MAI) of CIA rats fed PA crude extracts (Embodiment 2); conditions: gavage until Day 45, PA-H 375, PA-L 75, indomethacin 2.5 mg/kg/day, FIG. 4
Experimental: The animal test scheme is shown as FIG. 2. Bovine collagen Type II (Bovine C II) was dissolved in 0.1 M acetic acid solution, stirred to dissolve thoroughly, and formulated into solutions with concentrations of 1.5 and 3 mg/ml, which were stored in 4° C. for later use. For the first immune injection, 100 μl of C II solution was emulsified with an equal amount of CFA, and injected subcutaneously (200 μl/rat) in the root portions of tails of the rats after the emulsification was complete. […] After about 15 days, the second immunization was done. 100 μl of C II solution was emulsified with an equal amount of IFA, and injected subcutaneously (200 μl/rat) in the root portions of tails of the rats after the emulsification was complete. Approximately from Day 20, the symptoms of arthritis were observed (CIA rats), and PA and indomethacin were fed until Day 45. [table] 2. Evaluation of RA examination: evaluated in maximum arthritic index (MAI) After immunization, the rats were observed three times a week. The changes of redness and swelling or the like in limbs were recorded, and photographs were taken and filed for comparison. […] Maximum arthritic index, average MAI for each group was calculated as follows: Average MAI=Total of MAI recorded in limbs of each rat (0: no CIA occurs, 16: highest score)/4/total rat number of each group

C-reactive protein (CRP) = assay: Serum C-reactive protein (CRP) analysis of CIA rats fed PA crude extracts (Embodiment 2)
Experimental: The animal test scheme is shown as FIG. 2. Bovine collagen Type II (Bovine C II) was dissolved in 0.1 M acetic acid solution, stirred to dissolve thoroughly, and formulated into solutions with concentrations of 1.5 and 3 mg/ml, which were stored in 4° C. for later use. For the first immune injection, 100 μl of C II solution was emulsified with an equal amount of CFA, and injected subcutaneously (200 μl/rat) in the root portions of tails of the rats after the emulsification was complete. […] After about 15 days, the second immunization was done. 100 μl of C II solution was emulsified with an equal amount of IFA, and injected subcutaneously (200 μl/rat) in the root portions of tails of the rats after the emulsification was complete. Approximately from Day 20, the symptoms of arthritis were observed (CIA rats), and PA and indomethacin were fed until Day 45. [table] 1. CRP ELISA kit was a pre-coated microplate, into which 0.1 ml of appropriately diluted serum sample could be added directly. After being reacted for 1 hour at room temperature, it was washed by the washing buffer four times. 2. Rabbit anti-rat C-reactive protein (CRP) was combined with HRP Ab, diluted with the washing buffer 100 times, and then 0.1 ml was added into each well. […] Finally, O.D value was read out at the wavelength of 450 nm. […]

IL-1β = assay: Abdominal cavity cell (PEC) culture, cytokine IL-1β, CIA rats fed PA crude extracts (Embodiment 2); conditions: LPS 10 μg/ml, 24 hours, FIG. 8
Experimental: as §1

IL-6 = assay: Abdominal cavity cell (PEC) culture, cytokine IL-6, CIA rats fed PA crude extracts (Embodiment 2); conditions: LPS 10 μg/ml, 24 hours, FIG. 9
Experimental: as §1

COc1ccc2c(c1)c(CC(=O)O)c(C)n2C(=O)c1ccc(Cl)cc1 [indomethacin, Indomethacin]
inhibition of PEC secreting TNF-α (TNF-α): no effect of inhibiting PEC from secreting inflammatory cytokine
effect on the arthritic indices (MAI) of CIA rats (CIA rats): most preferred
effect on serum CRP concentration (C-reactive protein (CRP); Day 35, PA-H 375, PA-L 75, indomethacin 2.5 mg/kg/day, FIG. 7): efficiently inhibited
effect on serum CRP concentration (C-reactive protein (CRP); Day 45, FIG. 7): same effects still exist
inhibition of PEC secreting IL-1β (IL-1β): no effect of inhibiting PEC from secreting inflammatory cytokine
inhibition of PEC secreting IL-6 (IL-6): no effect of inhibiting PEC from secreting inflammatory cytokine
